# Columns and labels:
# F-cells = F-cells in Bfu-e erythroid progenitor cultures; format: cell-based
# clinical [1] = conditions: human, in vivo
# Description: (§1) Patients were monitored every 2 weeks for laboratory studies, physical examinations, and adverse events. Further, patients were followed for hematologic parameters primarily focusing on hemoglobin and fetal hemoglobin (HbF). In addition, pharmacokinetic samples were obtained on Day 0 and 13, at pre-dose and 2, 4, 6, 8, 12, and 24 hours post-dosing. Hemoglobin was measured at each site using standard hematology equipment. HbF was measured using Varian HPLC. […] Adverse events in treated subjects included headache, upper respiratory infection, pyrexia, fatigue, nausea, and dizziness, but the rates of such events were not markedly different from those observed in the placebo-treated subjects.
# A noncompartmental PK analysis was conducted using steady state concentration-time data for Day 13.
# [2] = Phase 2 trial in thalassemia intermedia patients, safety; format: in vivo, human
# Description: A randomized, doubled blind, placebo-controlled, multiple ascending dose Phase I/II trial was conducted in 21 adult patients with beta thalassemia intermedia, including 14 patients with HbE/β^0 thalassemia from Thailand and 7 patients with β^+/β^0 thalassemia (including 12 different beta globin gene mutations). Study medication was taken as a single daily dose of DMB for 8 weeks followed minimally by a 4 week break and follow-up period. Four ascending dose levels (10, 20, 30, and 40 mg/kg/day) were sequentially evaluated in 4 dose level cohorts after the preceding dose and schedule were determined safe by an independent and unblinded Safety Monitoring Committee.
# All treatment groups had two placebo patients; placebo patients in the first dose group were randomized to treatment in the second dose group. Ten patients in Thailand (all HbE type) were treated with 10 mg/kg (8 active/2 placebo) followed by eight patients in Thailand who were treated followed by 30 mg/kg (6 active/2 placebo). Eleven patients (4 That, 7 Lebanese) were treated with 20 mg/kg followed by 40 mg/kg (9 active [6 Lebanese/3 That]/2 placebo). Patients ranged in age from 17 to 49 with a median age of 31 and were comprised for 16 females and 5 males.
# as §1
# in vivo = assay: in vivo; design: species or system baboon; conditions: po
# Description: Additionally, the pharmacokinetic profile of DMB was evaluated in a female baboon who received an IV dose of 50 mg/kg and single oral doses of 100, 150 and 200 mg/kg. Following IV administration, DMB concentrations peaked at the end of dose administration and decayed in a log-linear fashion with no obvious appearance of a distribution phase and after oral administration, the concentration reached a peak within 2 hours after dosing and subsequently decayed in a log-linear fashion at all three dose levels. There was a secondary DMB peak which occurred at 6 hours after dosing of the 200 mg/kg oral dose (FIG. 4).
# Vz/F was consistently smaller as the dose was increased.
# [3] = Dose range-finding embryo/fetal developmental toxicity in rats; format: in vivo
# Description: DMB was administered orally by gavage to 4 groups of 8 bred female Sprague Dawley rats once daily from gestation Days 6 through 17, at dosage levels of 50, 150, 500 and 1000 mg/kg/day. […] On gestation Day 20, a laparohysterectomy was performed on each surviving female.
# clinical [4] = conditions: human, in vivo; remark: listed apart in the source
# Description: The first clinical study was a phase 1, double-blind, placebo-controlled, single dose study of the tolerability, safety and pharmacokinetics of DMB in 32 healthy volunteers. Healthy, fasting adult volunteers received single oral doses of DMB or placebo capsules at one of four dose levels (2 mg/kg, 5 mg/kg, 10 mg/kg and 20 mg/kg). Six subjects received study drug (24 subjects total) and 2 subjects received placebo at each dose level. The 8 placebo subjects received a capsule containing only the excipients from the capsules containing the active agent. Subjects at the 20 mg/kg also received a second dose of study drug after a defined meal, one week following the fasting dose.
# DMB was rapidly absorbed after oral administration, with peak concentrations of DMB occurring at 0.5 to 3 hours after dosing, followed by a mono-exponential decay phase, consistent with linear pharmacokinetics (FIG. 7; FIG. 8). Inter-subject variability in the primary PK parameters appears to be low, especially at higher doses.
# absolute reticulocytes = assay: Phase 1 repeat-dose clinical study, absolute reticulocytes; format: in vivo, human
# Description: Mean absolute reticulocytes (10^9 cells/L) in the placebo group at baseline and Day 27 were 51+/−12 and 62+/−20, respectively, which was not statistically significant (p=0.19). Mean absolute reticulocytes increased on average from 50% to 60% above the mean baseline values in the subjects who received study medication. For example, at baseline in Cohort 1 (5 mg/kg, fasted) mean absolute reticulocytes were 50+/−12 and mean peak reticulocytes were 81+/−24, (p=0.02); in Cohort 4 (10 mg/kg) mean baseline reticulocytes were 58+/−8 and mean peak reticulocytes were 84+/−14, (p=0.003), and in Cohort 5 (15 mg/kg; fed), the mean baseline was 46+/−11 and mean peak level was 72+/−11, a 50% increase (p=0.001).
structure (smiles),measurement,setting,value
"CCC(C)(C)C(=O)[O-].[Na+] [DMB, Sodium 2,2-dimethylbutyrate]",F-cells increase above F-cell levels in control cultures,F-cells,32-71%
same,Tmax,clinical [1],2.5 to 3.1 h
same,half-life,clinical [1]; 10 mg/kg,12.1 h
same,half-life,clinical [1]; 40 mg/kg,10.3 h
same,Dizziness,[2]; 10 mg/kg,2 (25) n (%)
same,Fatigue,[2]; 10 mg/kg,1 (13) n (%)
same,Headache,[2]; 10 mg/kg,5 (63) n (%)
same,Nausea,[2]; 10 mg/kg,0 n (%)
same,Pyrexia,[2]; 10 mg/kg,3 (38) n (%)
same,Serious adverse event: Palpitations,[2]; 10 mg/kg,1 (13) 10 mg/kg n (%)
same,Treatment Related? (Palpitations),[2]; 10 mg/kg,Not related to treatment
same,Upper Respiratory Tract Infection,[2]; 10 mg/kg,5 (63) n (%)
same,subjects who discontinued study medication due to anemia,"[2]; 10 mg/kg, considered not related to study medication",Two
same,Dizziness,[2]; 20 mg/kg,2 (22) n (%)
same,Fatigue,[2]; 20 mg/kg,0 n (%)
same,Headache,[2]; 20 mg/kg,3 (33) n (%)
same,Nausea,[2]; 20 mg/kg,2 (22) n (%)
same,Pyrexia,[2]; 20 mg/kg,0 n (%)
same,Serious adverse event: Suprapubic Pain,[2]; 20 mg/kg,1 (11) 20 mg/kg n (%)
same,Treatment Related? (Suprapubic Pain),[2]; 20 mg/kg,Unlikely related
same,Upper Respiratory Tract Infection,[2]; 20 mg/kg,2 (22) n (%)
same,Dizziness,[2]; 30 mg/kg,0 n (%)
same,Fatigue,[2]; 30 mg/kg,0 n (%)
same,Headache,[2]; 30 mg/kg,2 (33) n (%)
same,Nausea,[2]; 30 mg/kg,0 n (%)
same,Pyrexia,[2]; 30 mg/kg,2 (33) n (%)
same,Upper Respiratory Tract Infection,[2]; 30 mg/kg,1 (17) n (%)
same,Dizziness,[2]; 40 mg/kg,1 (11) n (%)
same,Fatigue,[2]; 40 mg/kg,4 (44) n (%)
same,Headache,[2]; 40 mg/kg,1 (11) n (%)
same,Nausea,[2]; 40 mg/kg,3 (33) n (%)
same,Pyrexia,[2]; 40 mg/kg,1 (11) n (%)
same,Serious adverse event: Gastritis,[2]; 40 mg/kg,1 (11) 40 mg/kg n (%)
same,Treatment Related? (Gastritis),[2]; 40 mg/kg,Not related to treatment
same,Upper Respiratory Tract Infection,[2]; 40 mg/kg,1 (11) n (%)
same,tolerability,"[2]; 10 to 40 mg/kg/day, 8 weeks",well tolerated
same,Serious adverse event: Gastroenteritis,[2]; HQK-1001 groups,0 n (%)
same,Serious adverse event: Upper Respiratory Infection,[2]; HQK-1001 groups,0 n (%)
same,half-life,"in vivo; female, monkey",2.89 to 6.92 h
same,bioavailability,"in vivo; female, monkey, 100 mg/kg",71.8%
same,Tmax,"in vivo; female, monkey, 200 mg/kg",1.5 to 2 h
same,CL/F at 200 mg/kg relative to the lower doses,in vivo; 200 mg/kg,about ¼
same,maternal or fetal effects,[3]; 50 mg/kg/day,No maternal or fetal effects
same,postimplantation loss,[3]; 150 mg/kg/day,Increased postimplantation loss
same,acceptability of dosage for a definitive embryo/fetal developmental toxicity study,"[3]; rat, in vivo",considered unacceptable
same,CL/F,clinical [4],0.267 to 1.03 mL/min/kg
same,Vd,clinical [4],0.204 to 0.426 L/kg
same,doses achieving biologically active plasma drug levels,clinical [4],≥ 10 mg/kg
same,half-life,clinical [4],5.5 to 11.6 h
same,AUC(0-inf),clinical [4]; 2 mg/kg,38 ± 23 µg·h/mL
same,AUC,clinical [4]; 5 mg/kg,38.3 µg·h/mL
same,AUC(0-inf),clinical [4]; 5 mg/kg,320 ± 40 µg·h/mL
same,AUC(0-inf),clinical [4]; 10 mg/kg,538 ± 125 µg·h/mL
same,AUC,clinical [4]; 20 mg/kg,1190 µg·h/mL
same,AUC(0-inf),clinical [4]; 20 mg/kg,1190 ± 243 µg·h/mL
same,effect of food on AUCINF,clinical [4]; 20 mg/kg,no effects were observed
same,Cmax,"clinical [4]; 20 mg/kg, mean Cmax",89 µg/mL
same,time of peak concentrations after dosing,clinical [4]; po,0.5 to 3 h
same,mean peak reticulocytes,"absolute reticulocytes; Cohort 1 (5 mg/kg, fasted), baseline 50+/−12, p=0.02",81+/−24 10^9 cells/L
same,mean peak reticulocytes,"absolute reticulocytes; Cohort 4 (10 mg/kg), baseline 58+/−8, p=0.003",84+/−14 10^9 cells/L
same,"increase of reticulocytes, baseline to peak",absolute reticulocytes; Cohort 5 (15 mg/kg; fed),50%
same,mean peak reticulocytes,"absolute reticulocytes; Cohort 5 (15 mg/kg; fed), baseline 46+/−11, p=0.001",72+/−11 10^9 cells/L
